Data from ChEMBL document CHEMBL4340541, “Synthesis of andrographolide analogues and their neuroprotection and neurite outgrowth-promoting activities” (Bioorg Med Chem, 2019).
Calls of active or inactive are those of the source. The rule behind the calls is not given here.

Key:
BV-2 [1] = test: Antiinflammatory activity in mouse BV2 cells assessed as reduction in LPS-induced NO production at 20 uM incubated for 24 hrs by Griess method; assay type: functional; details: for inhibition at 20 µM: BV-2, 24 h
[2] = Lipophilicity, log P of the compound; assay type: physicochemical; details: octanol/water
PC-12 [3] = test: Neuroprotective activity against H2O2-induced toxicity in rat PC12 cells assessed as increase in cell viability at 20 uM pretreated for 24 hrs followed by H2O2 challenge and measured after 24 hrs by MTT assay; assay type: functional, cell-based
PC-12 [4] = test: Neuroprotective activity against 6-OHDA -induced toxicity in rat PC12 cells assessed as increase in cell viability at 20 uM pretreated for 24 hrs followed by 6-OHDA challenge and measured after 24 hrs by MTT assay; assay type: functional, cell-based
PC-12 [5] = test: Induction of neurite outgrowth in NGF-induced rat PC12 cells assessed as neurite bearing cells at 20 uM cotreated with 20 ng/ml NGF incubated for 48 hrs by light microscopy; assay type: functional
BV-2 [6] = test: Cytotoxicity in mouse BV2 cells assessed as reduction in cell viability; assay type: cell-based
PC-12 [7] = test: Induction of neurite outgrowth in NGF-induced rat PC12 cells assessed as neurite bearing cells cotreated with 20 ng/ml NGF incubated for 48 hrs by light microscopy; assay type: functional, cell-based
PC-12 [8] = test: Induction of neurite outgrowth in rat PC12 cells assessed as neurite bearing cells in absence of 20 ng/ml NGF incubated for 48 hrs by light microscopy; assay type: functional, cell-based
PC-12 [9] = test: Induction of neurite outgrowth in NGF-induced rat PC12 cells assessed as neurite bearing cells at 20 uM cotreated with 20 ng/ml NGF incubated for 48 hrs by methylene blue staining based light microscopy; assay type: functional
BV-2 [10] = test: Antiinflammatory activity in mouse BV2 cells assessed as reduction in LPS-induced NO production incubated for 24 hrs by Griess method; assay type: functional, cell-based
BV-2 [11] = test: Antiinflammatory activity in LPS-induced mouse BV2 cells assessed as reduction in iNOS mRNA expression at 20 uM incubated for 24 hrs by RT-PCR analysis method; assay type: functional, cell-based
BV-2 [12] = test: Antiinflammatory activity in LPS induced mouse BV2 cells assessed as reduction in iNOS expression at 20 uM incubated for 24 hrs by DAPI based fluorescence microscopic method; assay type: functional, cell-based
BV-2 [13] = test: Antiinflammatory activity in LPS induced mouse BV2 cells assessed as reduction in TNFalpha incubated for 6 hrs by ELISA method; assay type: functional, cell-based
BV-2 [14] = test: Antiinflammatory activity in LPS induced mouse BV2 cells assessed as reduction in IL-6 incubated for 24 hrs by ELISA method; assay type: functional, cell-based
BV-2 [15] = test: Neuroprotective activity against microglia-conditioned medium-induced cytotoxicity in rat PC12 cells exposed to conditioned medium derived from 24 hrs compound pre-treated mouse BV2 cells assessed as increase in cell viability at 5 to 20 uM by MTT assay; assay type: functional, cell-based
BV-2 [16] = test: Neuroprotective activity against microglia-conditioned medium-induced cytotoxicity in rat PC12 cells exposed to conditioned medium derived from mouse BV2 cells assessed as increase in cell viability at 5 to 20 uM by MTT assay; assay type: functional, cell-based
PC-12 [17] = test: Neuroprotective activity against 6-OHDA -induced toxicity in rat PC12 cells assessed as increase in cell viability at 10 uM pretreated for 24 hrs followed by 6-OHDA challenge and measured after 24 hrs by MTT assay; assay type: functional, cell-based
PC-12 [18] = test: Neuroprotective activity against H2O2-induced toxicity in rat PC12 cells assessed as increase in cell viability at 10 uM pretreated for 24 hrs followed by H2O2 challenge and measured after 24 hrs by MTT assay; assay type: functional, cell-based
PC-12 [19] = test: Induction of neurite outgrowth in NGF-induced rat PC12 cells assessed as neurite bearing cells at 5 to 10 uM cotreated with 20 ng/ml NGF incubated for 48 hrs by light microscopy; assay type: functional, cell-based
BV-2 [20] = test: Antiinflammatory activity in mouse BV2 cells assessed as reduction in LPS-induced NO production at 1 uM incubated for 24 hrs by Griess method relative to control; assay type: functional; details: BV-2, 24 h
BV-2 [21] = test: Neuroprotective activity against microglia-conditioned medium-induced cytotoxicity in rat PC12 cells co-cultred with mouse BV2 cells assessed as increase in cell viability at 5 to 20 uM incubated for 4 hrs by MTT assay; assay type: functional, cell-based
PC-12 [22] = test: Cytotoxicity against rat PC12 cells assessed as reduction in cell viability incubated for 48 hrs; assay type: cell-based; details: pc-12, 48 h

SMILES | inhibition (BV-2 [1]) | logP ([2]; read-out: logP) | Activity (PC-12 [3]) | Activity (PC-12 [4]) | Activity (PC-12 [5]) | Activity (BV-2 [6]) | other results
C=C1CC[C@@H]2[C@](C)(COC(C)=O)[C@H](OC(C)=O)CC[C@@]2(C)[C@@H]1CCC1=CCOC1=O | Active | 4.02 | inactive | inactive | inactive | Non-Toxic | 
C=C1CC[C@@H]2[C@](C)(CO)[C@H](O)CC[C@@]2(C)[C@@H]1CCC1=CCOC1=O [DEOXYANDROGRAPHOLIDE] | inactive | 3.43 | inactive | inactive | inactive | Non-Toxic | 
C=C1CC[C@@H]2[C@](C)(CO)[C@H](O)CC[C@@]2(C)[C@@H]1/C=C/C1=CCOC1=O | inactive |  | inactive | inactive | <=16.1% | Non-Toxic | logP [2]: 3.23; Activity (PC-12 [7]): Dose-dependent effect; Activity (PC-12 [8]): Active; Activity (PC-12 [9]): 18.6%
C=C1CC[C@@H]2[C@](C)(CO[C@@H]3O[C@H](CO)[C@@H](O)[C@H](O)[C@H]3O)CCC[C@@]2(C)[C@@H]1CCC1=CCOC1=O [NEOANDROGRAPHOLIDE] | inactive | 3.07 | inactive | inactive |  | Non-Toxic | Activity (PC-12 [7]): Dose-dependent effect; Activity (PC-12 [8]): Active; Activity (PC-12 [9]): 21.5%
C=C1CC[C@@H]2[C@](C)(COC(C)=O)[C@H](OC(C)=O)CC[C@@]2(C)[C@@H]1C/C=C1\C=COC1=O |  | 3.87 | inactive | inactive | inactive | Non-Toxic | inhibition at 20 µM (BV-2 [1]): 78%; inhibition (BV-2 [10]): Dose-dependent effect; Activity (BV-2 [11]): Active; Activity (BV-2 [12]): Active; Activity (BV-2 [13]): Dose-dependent effect; Activity (BV-2 [14]): Dose-dependent effect; Activity (BV-2 [15]): Active; Activity (BV-2 [16]): inactive
C=C1CC[C@@H]2[C@](C)(COC(C)=O)[C@H](OC(C)=O)CC[C@@]2(C)[C@@H]1CCC1C(=O)OC[C@H]1OC(C)=O (stereo partly specified) | Active | 3.71 | inactive | inactive | inactive | Non-Toxic | 
C[C@@]1(CO)[C@H](O)CC[C@@]2(C)C3CC(C4=CCOC4=O)O[C@]3(C)CC[C@H]12 (stereo partly specified) | inactive | 2.16 | Active | Active | inactive | Non-Toxic | Activity (PC-12 [17]): Active; Activity (PC-12 [18]): Active
C=C1CC[C@@H]2[C@](C)(COC(C)=O)[C@H](OC(C)=O)CC[C@@]2(C)[C@@H]1/C=C/C1=CCOC1=O | Active | 3.83 | inactive | inactive | inactive | Non-Toxic | 
CC1=C(CCC2=CCOC2=O)[C@]2(C)CC[C@@H](O)[C@@](C)(CO)[C@H]2CC1 | inactive | 2.9 | inactive | inactive | Active | Non-Toxic | Activity (PC-12 [7]): Dose-dependent effect; Activity (PC-12 [8]): Active; Activity (PC-12 [9]): 31.2%
CC(=O)OC[C@@]1(C)[C@H]2CCC(C)=C(C[C@H](OC(C)=O)C3=CCOC3=O)[C@]2(C)CC[C@H]1OC(C)=O |  | 2.96 | Active | Active |  | Non-Toxic | inhibition at 20 µM (BV-2 [1]): 95.7%; inhibition (BV-2 [10]): Dose-dependent effect; Activity (BV-2 [11]): Active; Activity (BV-2 [12]): Active; Activity (BV-2 [13]): Dose-dependent effect; Activity (BV-2 [14]): Dose-dependent effect; Activity (PC-12 [19]): inactive; inhibition at 1 µM (BV-2 [20]): 34.4%; Activity (BV-2 [15]): Active; Activity (BV-2 [16]): inactive; Activity (BV-2 [21]): Active; Activity (PC-12 [22]): Toxic
C=C1CC[C@@H]2[C@](C)(CO)[C@H](O)CC[C@@]2(C)[C@@H]1C/C=C1/C(=O)OC[C@H]1O [ANDROGRAPHOLIDE] |  |  |  |  | Active |  | inhibition at 20 µM (BV-2 [1]): 76.7%
C=C1CC[C@@H]2[C@](C)(CO)[C@H](O)CC[C@@]2(C)[C@@H]1CCC1C(=O)OC[C@H]1O (stereo partly specified) | inactive | 2.54 | inactive | inactive | inactive | Non-Toxic | 
C=C1CC[C@@H]2[C@](C)(CO)[C@H](O)CC[C@@]2(C)[C@@H]1C/C=C1\C=COC1=O | inactive | 3.28 | inactive | inactive | inactive | Non-Toxic | 
